What all share (type): cell-based
For assay [1], the system named is human iPS cells (TkDN4-M cell line). In words: Cell yield at Day 5 of suspension culture (trypan blue count). The conditions noted are these: TRAP-6 5 μM on Day 1, then TRAP-6-free medium; seeded 8×10^5 cells/well. The method, then:
A cell suspension was prepared in the same manner as in Example 2, and separately, the cell aggregation suppressor was adjusted so that the final concentration of TRAP-6 (same as above) was 3.74 mg/mL (10 mM). Then the adjusted cell aggregation suppressor was added to the cell suspension so that the final concentration of the agonist of a thrombin receptor was 5 μM. Then the cells were seeded at a ratio of 4 mL/well in a 6-well plate for suspension culture (Sumitomo Bakelite Co., Ltd.). The cell-seeded plate was subjected to a swirling culture on a rotary shaker (OPTIMA, Inc.) at a speed of 75 rpm along the horizontal plane to draw a circle with a swirling width (diameter) of 25 mm, and cells were cultured in suspension under a condition at 5% CO2 and 37° C. […] The concentration of glucose contained in the culture supernatant collected at the time of culture medium exchange was measured with biosensor BF-5iD (Prince Measuring Equipment Co., Ltd.) to calculate glucose consumption.
Cell yields were also measured at Day 5 of culture. […] After that, the number of cells was counted using a hemocytometer to determine the cell yield.

Assay [2] shares this test system. In words: Cell aggregation assay: suspension (swirling) culture of human iPS cells, phase contrast microscopy. The conditions noted are these: Day 1 of culture; for cell aggregation suppression (aggregate formation observed by microscopy): compared to only Y-27632. The protocol:
TkDN4-M cell lines (Institute of Medical Science, The University of Tokyo) were used as human iPS cells. Human iPS cells were seeded on cell culture dishes coated with Vitronectin (Thermo Fisher Scientific Co., Ltd.) and subjected to a maintenance culture using Essential 8™ (Thermo Fisher Scientific Co., Ltd.) as the culture medium. Accutase (Thermo Fisher Scientific Co., Ltd.) was used as a cell detachment agent during passage. In addition, when the cells were seeded, Y-27632 (Wako Pure Chemical Industries, Ltd.) at a concentration of 10 μM was added to a culture medium. The culture medium was changed every day. For experiments, human iPS cells (the number of passage was 50 or less) were used.
The resulting cells were suspended in Essential 8™ culture medium comprising a final concentration of 5 mg/mL of BSA (Wako Pure Chemical Industries, Ltd.) and 10 μM of Y-27632 (Wako Pure Chemical Industries, Ltd.), and a portion thereof was stained with trypan blue and the number of cells was counted. The cell suspension was prepared so as to contain 2×10^5 cells per mL. […] Then the cells were seeded at a ratio of 1.3 mL/well in a 12-well plate for suspension culture (Sumitomo Bakelite Co., Ltd.). The cell-seeded plate was subjected to a swirling culture on a rotary shaker (OPTIMA, Inc.) at a speed of 90 rpm along the horizontal plane to draw a circle with a swirling width (diameter) of 25 mm, and cells were cultured in suspension under a condition at 5% CO2 and 37° C. At the next day after the start of culture (Day 1 of culture), images were obtained by phase contrast microscopy. A control test was conducted using a cell suspension prepared under the same condition as above except that Y-27632 and TRAP-6 were not added.
(§1) A cell suspension was prepared in the same manner as in Example 2, and separately, the cell aggregation suppressor was adjusted so that the final concentration of TRAP-6 (same as above) was 3.74 mg/mL (10 mM). Then the adjusted cell aggregation suppressor was added to the cell suspension so that the final concentration of the agonist of a thrombin receptor was 5 μM. Then the cells were seeded at a ratio of 4 mL/well in a 6-well plate for suspension culture (Sumitomo Bakelite Co., Ltd.). The cell-seeded plate was subjected to a swirling culture on a rotary shaker (OPTIMA, Inc.) at a speed of 75 rpm along the horizontal plane to draw a circle with a swirling width (diameter) of 25 mm, and cells were cultured in suspension under a condition at 5% CO2 and 37° C. After the next day of culture (Day 1 of culture), the culture medium was exchanged daily for fresh medium (Essential 8™ culture medium containing BSA (Wako Pure Chemical Industries, Ltd.) at a final concentration of 5 mg/mL), and the culture continued until Day 5 of culture. A control test was conducted using a cell suspension prepared under the same condition as described above except that TRAP-6 was not added. Images were obtained by phase contrast microscopy every day during culture. The concentration of glucose contained in the culture supernatant collected at the time of culture medium exchange was measured with biosensor BF-5iD (Prince Measuring Equipment Co., Ltd.) to calculate glucose consumption.
Cell suspensions were prepared in the same manner as in Example 2 using human iPS cells cultured with the protocol of Example 1, and instead of TRAP-6, a PAR-1 agonist (Proteinase Activated Receptor-1; PAR-1 agonist, ANASPEC, AS-62937, a C-terminal amidated peptide consisting of the amino acid sequence of TFLLRN (SEQ ID NO: 8)) was added so that a final concentration thereof was 32.8 μM or S1P (sphingosine-1-phosphate; Cayman, 62570) (positive control) was added so that the final concentration thereof was 0.8 μg/mL). Then, suspension culture and image acquisition were performed in the same manner as in Example 2.

Assay [3] shares this test system. In words: Percentage of cells positive for undifferentiation markers (flow cytometry). To be noted: Day 5 of culture. The method, then: as §1
In addition, at Day 5 of culture, cell aggregates were collected, dispersed with Accutase, and then suspended in Essential 8™ culture medium containing 5 mg/mL BSA. A portion of this cell suspension was stained with trypan blue and the number of cells was counted. After the above cell suspensions were centrifuged at 300 g for 3 minutes, the supernatant was then removed, and the cells were washed with PBS (phosphate buffered saline). Next, the cells were fixed with 4% paraformaldehyde (Wako Pure Chemical Industries, Ltd.) at room temperature for 20 minutes, then washed 3 times with PBS. After cells were resuspended with 300 μL of PBS, 3 mL of cold methanol was added while stirring with voltex, and permeabilized at −20° C. overnight or more. After 3 washes with 3% FBS (fetal bovine serum)/PBS, cells were resuspended with 3% FBS (fetal bovine serum)/PBS and blocked at room temperature for 30 minutes to 1 hour. Subsequently, the cells were stained with fluorescently labeled anti-SOX2 antibodies (Cat. No. 656110, BioLegend, Inc.) and fluorescently labeled anti-OCT4 antibodies (Cat. No. 653703, BioLegend, Inc.) and fluorescently labeled anti-Nanog antibodies (Cat. No. 674010, BioLegend, Inc.) at 4° C. for 30 minutes to 1 hour. […] The resulting cells were analyzed on FACSVerse. […]

Assay [4] has the same test system. In words: Glucose consumption during suspension culture of human iPS cells. To be noted: TRAP-6 5 μM on Day 1, then TRAP-6-free medium, Day 1 to Day 5, compared to TRAP-6 non-added condition. The method, then:
as §1, with “A control test was conducted using a cell suspension prepared under the same condition as described above except that TRAP-6 was not added. Images were obtained by phase contrast microscopy every day during culture.” left out

Assay [5] shares this test system. In words: Size distribution of cell aggregates (width of widest portion in micrograph). The conditions noted are these: TRAP-6 5 μM, Day 1 of culture. The protocol:
as §1
For cells cultured in suspension in the presence of TRAP-6 according to Example 3, 210 cell aggregates in an image acquired at Day 1 of culture were observed and compared using a micrograph scale, the width of the widest portion (referred to as “ϕ”) of each cell aggregate was measured, then distribution thereof was examined, and the average±standard deviation was calculated.

Where [6] appears, read: TRAP-6 5 μM on Day 1, then TRAP-6-free medium.

Experimental findings from patent US20210062139A1, “CELL AGGREGATION SUPPRESSOR” (KANEKA CORPORATION, priority 2017, published 2021) are described below.

Turning to “Thrombin Receptor Activator for Peptide 6 [TRAP-6]”, in assay [1], the “proliferation of seeded cells (cell yield) at Day 5 of culture” value is on record as 8.5 fold. The “cell aggregation suppression (aggregate formation observed by microscopy)” value in assay [2] (TRAP-6 2 μM with Y-27632 10 μM) was “aggregation was suppressed and smaller aggregates were formed”; in assay [2] (TRAP-6 10 μM with Y-27632 10 μM) it was “aggregation was suppressed and smaller aggregates were formed”; in assay [2] (TRAP-6 50 μM with Y-27632 10 μM) it was “aggregation was suppressed and smaller aggregates were formed”. Also, in assay [2] (TRAP-6 5 μM with Y-27632 10 μM, 6-well plate, 75 rpm, compared to no TRAP-6), the “aggregate size observed by microscopy” value is on record as “formation of smaller aggregates”. In addition, the “percentage of cells positive for Nanog” value in assay [3] (setting [6]) is at least 99%. Also, the “percentage of cells positive for OCT4” value in assay [3] (setting [6]) is listed as at least 98%. The “percentage of cells positive for SOX2” value in assay [3] (setting [6]) is given as at least 99%. Also, the “undifferentiated state of human iPS cell aggregates” value in assay [3] (aggregates formed by addition of Y-27632 and TRAP-6 (5 μM)) was “remained undifferentiated”. Besides, in assay [4], the glucose consumption entry was “greater than that under the TRAP-6 non-added condition”. Besides, in assay [5], the “percentage of cell aggregates with size (diameter) 40 μm or more and 300 μm or less” value was 100%. In assay [5], the “percentage of cell aggregates with size (diameter) 60 μm or more and 300 μm or less” value came to 100%. Moreover, the “percentage of cell aggregates with size (diameter) 80 μm or more and 300 μm or less” value in assay [5] was determined as 98.0%. Further, the “percentage of cell aggregates with size (diameter) 100 μm or more and 300 μm or less” value in assay [5] stood at 97.0%. The “average±standard deviation of cell aggregate size (diameter)” value in assay [5] (210 cell aggregates) came to 167.8±35.3 μm. For the same compound, the “Number of cell aggregates by size” value in assay [5] (size range 40- μm) is 0; in assay [5] (size range 60- μm), 4; in assay [5] (size range 80- μm), 2; in assay [5] (size range 100- μm) it was 5; in assay [5] (size range 120- μm), 25; in assay [5] (size range 140- μm), 58. In addition, the “Number of cell aggregates by size” value in assay [5] (size range 160- μm) is 56; in assay [5] (size range 180- μm), 31; in assay [5] (size range 200- μm), 13; in assay [5] (size range 220- μm), 8; in assay [5] (size range 240- μm), 3; in assay [5] (size range 260- μm), 4. For the same compound, the “Number of cell aggregates by size” value in assay [5] (size range 280- μm) is 1; in assay [5] (size range 300- μm), 0. Further, the “Percentage of cell aggregates by size” value was 0% in assay [5] (size range 40- μm); 2% in assay [5] (size range 60- μm); 1% in assay [5] (size range 80- μm); 2% in assay [5] (size range 100- μm); 12% in assay [5] (size range 120- μm); 28% in assay [5] (size range 140- μm). The “Percentage of cell aggregates by size” value in assay [5] (size range 160- μm) amounted to 27%; in assay [5] (size range 180- μm), 15%; in assay [5] (size range 200- μm) it was 6%; in assay [5] (size range 220- μm), 4%; in assay [5] (size range 240- μm) it was 1%; in assay [5] (size range 260- μm), 2%. In addition, the “Percentage of cell aggregates by size” value in assay [5] (size range 280- μm) and in assay [5] (size range 300- μm) was 0% in each case.
`CCCCCCCCCCCCC/C=C/[C@@H](O)[C@@H](N)COP(=O)(O)O` [S1P, sphingosine-1-phosphate]: in assay [2] (S1P 0.8 μg/mL (positive control) with Y-27632 10 μM), the “cell aggregation suppression (aggregate formation observed by microscopy)” value is “aggregation was suppressed and smaller aggregates were formed”.
Regarding `C[C@@H](N)[C@H]1CC[C@H](C(=O)Nc2ccncc2)CC1` [Y-27632, 4-[(1R)-1-aminoethyl]-N-pyridin-4-ylcyclohexane-1-carboxamide], in assay [2] (Y-27632 10 μM alone, compared to control without Y-27632), the “aggregate formation observed by microscopy” value was “aggregates were formed”.
